Laboratory results reported in patent US20110027858A1, “Method of Modifying Fungal Morphology” (University of Akron, priority 2009, published 2011).

What was measured:
T. reesei [1] = assay: Effects of several surfactants on morphology (flocculation / pellet formation) of T. reesei; format: cell-based, Trichoderma reesei RUT C30; conditions: for Effective in changing morphology?: compared with 0.5 g/L and 1 g/L surfactant concentrations
Description: The effects of several surfactants on the morphology of T. reesei were studied. TABLE 1 summarizes the observations of the effects of several surfactants regarding to flocculation or formation of pellets in T. reesei. […] All surfactants listed in TABLE 1 were compared with 0.5 g/L and 1 g/L surfactant concentrations.

T. reesei [2] = assay: Shake flask growth of T. reesei with Triton X-100 (Example 6): morphology, growth, enzyme activity; format: cell-based, Trichoderma reesei RUT C30
Experimental: The effect of growing a fungus in a growth medium containing Triton X-100 was tested. A culture was grown on a growth medium containing (g/L): (NH4)2SO4 1.4, KH2PO4 2, MgSO4.7H2O 0.3, CaCl2.2H2O 0.4, urea 0.3, peptone 1.0, Tween-80 0.2, FeSO4.7H2O 0.005, MnSO4.H2O 0.0016, ZnSO4.7H2O 0.0014, CoCl2 0.002, and lactose 10.0. Initially the unadjusted pH was 5.5 after autoclaving.
Test cultures were grown in 50 mL volume in 250 mL flasks at 28° C. in a Que Orbital shaker (Model 4703, Parkersburg, W.Va., USA) at 250 rpm without pH control, initially at 5.5, for 7 days. Triton X-100 was tested at the following concentrations (g/L): 0.1, 0.3, 0.6, 0.8, 1.0, 1.5.
Cultures were followed for 7 days and visually checked for bulk morphology. Periodic monitoring was done aseptically by collecting a 2 mL representative sample every 24 hrs to measure cell concentration, enzyme activity, sugar concentration, and residual surfactant amounts.

| Substance | Size of generally uniform pellets formed (T. reesei [1]) | Effective in changing morphology? (T. reesei [1]) | global average doubling time (T. reesei [2]; across tested Triton concentrations, following the lag phase) [h] | average increase in the enzyme activity (T. reesei [2]; additive concentration in excess of 0.1 g/L) [%] | lag compared to the surfactant free system (T. reesei [2]; concentrations above 0.1 g/L) | concentration producing "pellet" growth (T. reesei [2]; tested at 0.1-1.5 g/L, 7 days, 28° C., 250 rpm) | Description: tendency toward cell flocculation with increasing surfactant concentration (T. reesei [1]; 0.5 g/L and 1 g/L surfactant, flocculation is correlated with pellet formation) |
| --- | --- | --- | --- | --- | --- | --- | --- |
| 4-(1,1,3,3-tetramethylbutyl)phenyl-polyethylene glycol [Triton X-100] | uniform ~1 mm pellets | YES | 9.1 ± 1.8 | 73±12 | one-day | greater than 0.3 g/L |  |
| polyoxyethylene sorbitan monolaurate [TWEEN ® 20] |  | YES |  |  |  |  | shows tendencies toward increased |
